From patent US7629359B2, “Use of piperidine derivatives as dermo-decontracting agents” (L'Oreal, priority 2004, dated 2009)

Tested on: dermis equivalent model consisting of a matrix of collagen seeded with normal human fibroblasts
Test: Dermo-decontracting effect on dermis equivalent model (spontaneous contraction of collagen gel)
Assay type: cell-based
Conditions: for activity as dermo-decontracting agent in the test of Example 1: dermis equivalent test presented in Example 1

| Compound | activity as dermo-decontracting agent in the test of Example 1 | reduction of the contraction of the fibroblasts compared with the control (1 μM test compound, on average over the duration of the experiment (0, 4, 8 and 24 hours), experiment repeated three times) [%] |
| --- | --- | --- |
| CN1C(=O)CN=C(c2ccccc2)c2cc(Cl)ccc21 [diazepam] | not active | – |
| COc1ccc([C@@H]2Sc3ccccc3N(CCN(C)C)C(=O)[C@@H]2OC(C)=O)cc1 [diltiazem] | not active | – |
| O=C(O)/C=C\C(=O)O.c1ccc(CCCCN2CCC(c3ccccc3)CC2)cc1 [maleic acid salt of 4-phenyl-1-(4-phenylbutyl)piperidine] | – | 17 |
| CCOC(=O)C1=C(C)NC(C)=C(C(=O)OC)C1c1cccc([N+](=O)[O-])c1 (stereo not shown) [nitrendipine] | not active | – |
